Two molecules from US20250049803A1, “COMBINATION OF A TASK1/3 CHANNEL BLOCKER WITH A NOREPINEPHRINE REUPTAKE INHIBITOR FOR THE TREATMENT OF SLEEP APNEA” (priority 2021, published 2025) can be followed below.

For data set [1], the system named is upper airway collapsibility. Description: pig model of obstructive sleep apnea (OSA): collapse of the upper respiratory tract under negative pressure. It counts as in vivo, German Landrace pigs. Set-up: efficacy of the dose on upper airway collapsibility: dose or concentration left out as unconfirmed. The source says: The therapeutic potential of the combination of a TASK1/3 channel blocker with a norepinephrine reuptake inhibitor according to the present invention in sleep apnea can be assessed preclinically in a pig model of obstructive sleep apnea (OSA).
German Landrace pigs are used for the model. The pigs are anaesthetized and tracheotomized. Two tracheal cannulas are inserted into the trachea, one into the rostral part and the other into the caudal part of the trachea. Using a connection piece, the rostral cannula is connected to a tube to the negative pressure device and to the distal tracheal cannula. The distal tracheal cannula is additionally connected to a tube with an open end to atmosphere via a connection piece that served for free tracheal breathing, circumventing the upper airway. By appropriate opening and clamping of those tubes breathing can be switched from nasal breathing to breathing through the caudal tracheal cannula, circumventing the upper airway, and the (isolated) upper airway can be connected to the negative pressure device, causing airflow in the inspiratory direction.
At certain points in time, the collapsibility of the upper respiratory tract is tested by having the pig breathe via the caudal cannula and applying negative pressures of −50, −100 and −150 cm water head (cm H2O) to the upper respiratory tract. This causes the upper respiratory tract to collapse, which manifests itself in an interruption of the airflow and a pressure drop in the tube system. This test is conducted prior to the administration of the test substance and at certain intervals after the administration of the test substance. An appropriately effective test substance can prevent this collapse of the respiratory tract in the inspiratory phase.

A short description of data set [2]: plasma concentrations of atomoxetine in the OSA pig model. It counts as in vivo, pigs. The note with it: atomoxetine dose used in the combination (i.v. bolus 20 μg/kg + infusion 12.5 μg/kg/h), FIG. 3.
Where [3] appears, read: intranasal 0.3 μg at 0 min, alone, time 0 min (time of administration).
The mark [4] stands for this setting: intranasal 0.3 μg at 0 min, alone, time 10 min.
[5] abbreviates: intranasal 0.3 μg at 0 min, alone, time 30 min.
Setting [6] is: intranasal 0.3 μg at 0 min, alone, time 60 min.
The mark [7] stands for this setting: intranasal 0.3 μg at 0 min, alone, time 90 min.
The mark [8] stands for this setting: atomoxetine i.v. bolus 20 μg/kg + infusion 12.5 μg/kg/h for four hours from 0 min, time 0 min (time of administration).
Where [9] appears, read: atomoxetine i.v. bolus 20 μg/kg + infusion 12.5 μg/kg/h for four hours from 0 min, time 10 min.
[10] abbreviates: atomoxetine i.v. bolus 20 μg/kg + infusion 12.5 μg/kg/h for four hours from 0 min, time 30 min.
The mark [11] stands for this setting: atomoxetine i.v. bolus 20 μg/kg + infusion 12.5 μg/kg/h for four hours from 0 min, time 60 min.
Where [12] appears, read: atomoxetine i.v. bolus 20 μg/kg + infusion 12.5 μg/kg/h for four hours from 0 min, time 90 min (time of nasal application of TASK1/3 channel blocker).

On to `COc1ccc(Cl)c(C(=O)N2C3CCC2CN(Cc2c(-c4ccc(C(C)C)cc4)nc4ncccn24)C3)n1` [(3-Chloro-6-methoxypyridin-2-yl)(3-{[2-(4-isopropylphenyl)imidazo[1,2-a]pyrimidin-3-yl]methyl}-3,8-diazabicyclo[3.2.1]oct-8-yl)methanone], for which the “efficacy of the dose on upper airway collapsibility” value in data set [1] (TASK1/TASK3 channel blocker alone) is “non effective dose”. For the same molecule, the “Percent pigs without collaps −50 cm H2O, %” value in data set [1] (setting [3]) amounted to 0%; in data set [1] (setting [4]), 33%; in data set [1] (setting [5]), 0%; in data set [1] (setting [6]), 0%; in data set [1] (setting [7]), 0%. For the same molecule, the “Percent pigs without collaps −100 cm H2O, %” value in data set [1] (setting [3]) is 0%; in data set [1] (setting [4]), 33%; in data set [1] (setting [5]), 0%; in data set [1] (setting [6]), 0%; in data set [1] (setting [7]), 0%. Besides, the “Percent pigs without collaps −150 cm H2O, %” value in data set [1] (setting [3]), in data set [1] (setting [4]), in data set [1] (setting [5]), in data set [1] (setting [6]) and in data set [1] (setting [7]) was 0% in each case.
For the molecule `CNCC[C@@H](Oc1ccccc1C)c1ccccc1` [atomoxetine, Atomoxetine], the plasma concentrations entry in data set [2] was “about 100 nM”. Besides, the “inhibition of upper airway collapsibility” value is “inhibited only at a negative pressure of −50 and −100 cm head” in data set [1] (atomoxetine alone, i.v. bolus 20 μg/kg + infusion 12.5 μg/kg/h, 30 min after bolus injection and start of infusion); “inhibited only at a negative pressure of −50 cm head” in data set [1] (atomoxetine alone, i.v. bolus 20 μg/kg + infusion 12.5 μg/kg/h, 60 min after administration). The upper airway collapsibility entry in data set [1] (atomoxetine alone, i.v. bolus 20 μg/kg + infusion 12.5 μg/kg/h, 90 min after bolus injection and start of infusion) is “induced at all negative pressures”. In data set [1] (atomoxetine alone, i.v. bolus 20 μg/kg followed by infusion 12.5 μg/kg/h for four hours), the “time points at which upper airway collapsibility was inhibited at all three negative pressures of −50, −100 and −150 cm head (cm H2O) in all pigs” value was “at no time point”. Further, the “Percent pigs without collaps −50 cm H2O, %” value is on record as 0% in data set [1] (setting [8]); 67% in data set [1] (setting [9]); 100% in data set [1] (setting [10]); 100% in data set [1] (setting [11]); 0% in data set [1] (setting [12]). The “Percent pigs without collaps −100 cm H2O, %” value in data set [1] (setting [8]) is listed as 0%; in data set [1] (setting [9]), 0%; in data set [1] (setting [10]) it was 100%; in data set [1] (setting [11]), 0%; in data set [1] (setting [12]), 0%. Besides, the “Percent pigs without collaps −150 cm H2O, %” value in data set [1] (setting [8]), in data set [1] (setting [9]), in data set [1] (setting [10]), in data set [1] (setting [11]) and in data set [1] (setting [12]) was 0% each time.
